Assay results as given in US8802597B2, “Herbicidal pyrimidines” (E I du Pont de Nemours and Company, priority 2003, dated 2014).

Tests used:
Assay in all cases: Test C pre/postemergence
Format in all cases: in vivo
Details in all cases: Preemergence
[1] = test system: woolly cupgrass (Eriochloa villosa)
How it was run: (§1)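 Percent control is a visual rating (0 none, 100 complete) taken against untreated plants after 12 to 14 days of greenhouse growth. Applications were made preemergence to seeded pots and postemergence to plants at the 1- to 4-leaf stage, in a non-phytotoxic surfactant-containing solvent.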

[2] = test system: eastern black nightshade (Solanum ptycanthum)
How it was run: as §1

[3] = test system: morningglory (Ipomoea coccinea)
How it was run: as §1

[4] = 31 g ai/ha, scale 0 to 100, 0 no effect, 100 complete control
[5] = 62 g ai/ha, scale 0 to 100, 0 no effect, 100 complete control

CCOC(=O)Cc1nc(C2CC2)nc(N)c1Br [Compound 12]
Plant response rating, Cupgrass, Woolly [1, 4]: 0
Plant response rating, Cupgrass, Woolly [1, 5]: 0
Plant response rating, Cupgrass, Woolly ([1]; 125 g ai/ha, scale 0 to 100): 10
Plant response rating, Cupgrass, Woolly ([1]; 250 g ai/ha, scale 0 to 100): 100
Plant response rating, Nightshade [2, 5]: 50
Plant response rating, Nightshade ([2]; 125 g ai/ha, scale 0 to 100): 60
Plant response rating, Nightshade ([2]; 250 g ai/ha, scale 0 to 100): 80
Plant response rating, Morningglory [3, 4]: 30
Plant response rating, Morningglory [3, 5]: 60
Plant response rating, Morningglory ([3]; 125 g ai/ha, scale 0 to 100): 60
Plant response rating, Morningglory ([3]; 250 g ai/ha, scale 0 to 100): 90
